From patent US20250346571A1, “BICYCLIC DERIVATIVE PARP INHIBITOR AND USE THEREOF” (XIZANG HAISCO PHARMACEUTICAL CO., LTD., priority 2022, published 2025) come the findings set out here.

For orientation: IC50 means the concentration needed to halve the response being measured. The term AUC(0-t) denotes exposure summed from dosing to a finite time, without extrapolation to infinity. Usually clearance stands for a measure of how efficiently the substance is removed, as volume per time. A lower clearance goes with inefficient removal. In general, bioavailability refers to the share of a dose that reaches the circulation, judged against a reference dose that is usually intravenous. A lower bioavailability goes with little systemic uptake.

One data set deals with PARP-1 enzyme (Homo sapiens (Human), UniProt P09874). Kind of data set: PARP-1 enzyme activity test (chemical fluorescence detection kit, BPS Bioscience). Format: biochemical. The following applies: grades; read-out: PARP-1 enzyme activity IC50. Here is the method: PARP-1 chemical fluorescence detection kit was purchased from BPS Bioscience. The histone solution in the kit was diluted 5× with 1×PBS, and 25 μL of the diluted histone solution was added to a microwell plate and incubated overnight at 4° C. After the incubation, the plate was washed three times with PBST (0.05% Tween-20). 100 μL of the blocking solution was added to the microwell plate and incubated at 25° C. for 90 minutes. After the incubation was completed, the plate was washed three times with PBST. 2.5 μL of compounds at different concentrations diluted in test buffer and 12.5 μL of substrate mixed solution (1.25 μL 10×PARP test buffer; 1.25 μL 10×PARP test mixed solution; 2.5 μL Activated DNA, 7.5 μL double-distilled water) were added to the microwell plate. The PARP-1 enzyme was diluted to 2 ng/μL, […] was added to the microwell plate, and the reaction system was incubated at 25° C. for 60 minutes.
After the incubation was completed, the plate was washed three times with PBST. Streptavidin-HRP was diluted 50× with a blocking solution, and 25 μL of the diluent was added to the microwell plate and incubated at 25° C. for 30 minutes. After the incubation, the plate was washed three times with PBST. ELISA ECL substrate A and substrate B were uniformly mixed at a ratio of 1:1 (v/v), 50 μL of the mixture was added to the microwell plate, and the chemiluminescence value was read.
The inhibition rate was calculated according to formula 1, where RLUsample was the readout of the compound well, RLUmax was the readout of the solvent control well, and RLUmin was the readout of the control well without the PARP-1 enzyme. Curve fitting was performed by four parameters (log(inhibitor) vs. response—Variable slope) using GraphPad Prism software, and the ICso value was calculated.
Inhibition %=(1−(RLUsample−RLUmin)/(RLUmax−RLUmin))×100% (formula 1)

A short description of data set [1]: Pharmacokinetic test in rats. Format: in vivo, SD rats. As for the experimental part: 3.1 Experimental animal: male SD rats, about 220 g, 6-8 weeks old, 6 rats/compound, purchased from Chengdu Ddossy Experimental Animals Co., Ltd.
3.2 Experimental design: on the day of the experiment, 30 SD rats were randomly grouped according to their body weights. The animals were fasted with water available for 12 to 14 h one day before the administration and were fed 4 h after the administration.
Before and after the administration, 0.15 ml of blood was taken from the orbit of the animals under isoflurane anesthesia and placed in an EDTAK2 centrifuge tube. The blood was centrifuged at 5000 rpm and 4° C. for 10 min to collect plasma. The blood collection time points for the intravenous administration group and intragastric administration group were 0, 5 min, 15 min, 30 min, 1 h, 2 h, 4 h, 6 h, 8 h and 24 h. The brain tissues were collected 24 hours after administration, rinsed with cold physiological saline to remove the residual blood on the surface, drained out and then homogenized. Before analysis and detection, all samples were stored at −80° C. The samples were analyzed quantitatively by LC-MS/MS.

The subject of the next data set is MDA-MB-436 cells. The data set is described as follows: MDA-MB-436 cell activity test (CellTiter-Glo, 7 days). The following applies: Homo sapiens. In kind it is cell-based. Here is the method: Breast tumor cells MDA-MB-436 were purchased from ATCC, the culture medium was Leibovitz's L-15+10% FBS, and the cells were cultured in a CO2-free incubator at 37° C. On day 1, the cells in the exponential growth phase were collected, and the cell suspension was adjusted to 4000 cells/135 μL with the culture medium. 135 μL of the cell suspension was added to each well of a 96-well cell culture plate and incubated overnight. On day 2, compounds at different concentrations were added, and the plate was placed in the incubator and incubated for 7 days. After the incubation was completed, according to operation instructions for a CellTiter-Glo kit (Promega, G7573), 75 μL of CTG solution, which was already pre-melted and equilibrated to room temperature, was added to each well, and the mixture was uniformly mixed for 2 min using a microplate shaker. The plate was placed at room temperature for 10 min, and then […] were measured using an Envision2104 plate reader (PerkinElmer). The inhibition rate was calculated using formula (1), where RLUcompound was the readout of the drug treated group, RLUcontrol was the average value of the vehicle control group, and RLUblank was the average value of the cell-free well. The IC50 value was calculated using GraphPad Prism software
A general note: In ATP-based viability assays light output follows the ATP content of the culture.

Data set [2] is described as follows: Pharmacokinetic test in monkeys. Format: in vivo, cynomolgus monkeys. Here is the method:
6.1 Experimental animal: male cynomolgus monkeys, 3-5 kg, 3-6 years old, 4 monkeys/compound, purchased from Suzhou Xishan Biotechnology Inc.
6.2 Test method: On the day of the experiment, 8 monkeys were randomly grouped according to their body weights. The animals were fasted with water available for 14 to 18 h one day before the administration, and were fed 4 h after the administration.
Before and after the administration, 1.0 mL of blood was taken from the limb veins and placed in an EDTAK2 centrifuge tube. The blood was centrifuged at 5000 rpm and 4° C. for 10 min to collect plasma. The blood collection time points for the intravenous administration group were 0, 5 min, 15 min, 30 min, 1 h, 2 h, 4 h, 6 h, 8 h, 10 h, 12 h, 24 h and 48 h. Before analysis and detection, all samples were stored at −80° C. The samples were analyzed quantitatively by LC-MS/MS.

[3] abbreviates: male, SD, rat, iv, rats, i.v. 2.5 mg/kg, plasma.
Where [4] appears, read: male, cynomolgus monkey, iv, monkeys, i.v. (1 mg/kg), plasma.

Chain of PARP-1 enzyme (P09874 whole entry): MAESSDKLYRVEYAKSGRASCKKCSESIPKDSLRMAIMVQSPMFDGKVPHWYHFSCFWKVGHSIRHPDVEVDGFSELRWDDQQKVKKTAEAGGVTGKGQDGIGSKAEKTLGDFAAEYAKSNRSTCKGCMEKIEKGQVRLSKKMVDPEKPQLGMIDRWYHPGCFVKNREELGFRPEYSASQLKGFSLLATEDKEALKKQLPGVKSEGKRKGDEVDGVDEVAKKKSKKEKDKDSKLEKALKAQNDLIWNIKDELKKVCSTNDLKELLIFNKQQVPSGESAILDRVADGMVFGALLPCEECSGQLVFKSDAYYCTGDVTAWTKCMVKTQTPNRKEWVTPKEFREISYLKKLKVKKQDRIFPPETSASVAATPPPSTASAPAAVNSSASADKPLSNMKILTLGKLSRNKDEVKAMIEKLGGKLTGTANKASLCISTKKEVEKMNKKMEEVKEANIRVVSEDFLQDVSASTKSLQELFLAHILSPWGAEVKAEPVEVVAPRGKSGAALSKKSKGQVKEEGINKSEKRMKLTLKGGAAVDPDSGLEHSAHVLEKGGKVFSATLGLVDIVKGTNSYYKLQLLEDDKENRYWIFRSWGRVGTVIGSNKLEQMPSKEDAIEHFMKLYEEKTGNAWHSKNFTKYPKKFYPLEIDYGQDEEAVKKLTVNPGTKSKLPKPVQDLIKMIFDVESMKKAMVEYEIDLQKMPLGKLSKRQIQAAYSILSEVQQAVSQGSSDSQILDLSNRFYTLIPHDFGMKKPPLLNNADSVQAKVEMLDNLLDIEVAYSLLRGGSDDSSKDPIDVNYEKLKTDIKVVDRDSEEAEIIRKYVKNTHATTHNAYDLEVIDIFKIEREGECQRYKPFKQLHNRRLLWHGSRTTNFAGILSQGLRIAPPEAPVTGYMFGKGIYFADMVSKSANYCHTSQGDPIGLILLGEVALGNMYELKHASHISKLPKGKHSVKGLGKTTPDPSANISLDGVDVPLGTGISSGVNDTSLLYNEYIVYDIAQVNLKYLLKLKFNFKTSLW

As for `Cn1cc(C(=O)Nc2ccc(N3CCN(Cc4ccc5nc(C(F)F)c(=O)[nH]c5c4F)CC3)c(F)n2)cn1` [Compound 14, N-(5-(4-((2-(difluoromethyl)-5-fluoro-3-oxo-3,4-dihydroquinoxalin-6-yl)methyl)piperazin-1-yl)-6-fluoropyridin-2-yl)-1-methyl-1H-pyrazole-4-carboxamide], the IC50 is below 0.005 µM at PARP-1 enzyme and 0.0243 µM with MDA-MB-436 cells (MDA-MB-436, 168 h, 7 days incubation). In addition, the “pharmacokinetic characteristics in rats” value in data set [1] (conclusion in words) was “good pharmacokinetic characteristics”. Also, the AUC(0-t) in data set [1] (setting [3]) was determined as 48.7 ± 4.79 µg·h/mL; in data set [1] (male, SD, rat, po, rats, i.g. 10 mg/kg, plasma) it was 138 ± 6.65 µg·h/mL; in data set [2] (setting [4]), 47.1 ± 6.26 µg·h/mL; in data set [2] (male, cynomolgus monkey, po, monkeys, i.g. (3 mg/kg), plasma), 80.1 ± 6.96 µg·h/mL. The values for the clearance in data set [1] (setting [3]) and in data set [2] (setting [4]) were 0.0515 ± 0.0054 L/h/kg and 0.0209 ± 0.00342 L/h/kg, respectively. Also, the Vd in data set [1] (male, SD, rat, iv, rats, i.v. 2.5 mg/kg, plasma, read-out: Vdss) was determined as 0.148 ± 0.01 L/kg; in data set [2] (male, cynomolgus monkey, iv, monkeys, i.v. (1 mg/kg), plasma, read-out: Vdss), 0.151 ± 0.022 L/kg. The bioavailability was 70.9 ± 3.4% in data set [1] (male, SD, rat, plasma, po, rats, i.g. 10 mg/kg) and 56.8 ± 4.9% in data set [2] (male, cynomolgus monkey, plasma, po, monkeys, i.g. (3 mg/kg)). For the same compound, the inhibition at 10 µM with MDA-MB-436 cells (10 μM, MDA-MB-436 cells, read-out: Max inh. % 10 μM) was determined as 73.2%. Also, the “pharmacokinetic characteristics in monkeys” value in data set [2] (conclusion in words) was “good pharmacokinetic characteristics”.
